# Results published in US10640468B2, “1-(4-(2-((1-(3,4-difluorophenyl)-1H-pyrazol-3-Yl)methoxy)ethyl)piperazin-1- Yl)ethanone salts” (ESTEVE PHARMACEUTICALS S.A., priority 2015, dated 2020).
# Several values for one entry are separate records, joined by “and”; a condition that tells them apart may be missing. Identical values can stand only once. Counter-ions that a name gives are not always drawn.
# Key:
# [1] = pKa of the free base compound; type: physicochemical
# [2] = Solubility study of Example 0 in solvents (volumes needed to dissolve the solid); type: physicochemical
# Experimental: Previously a solubility study was performed with compound Example 0. The results are shown in Table 1 wherein number of volumes needed to dissolve the solid in the corresponding solvent at room temperature is shown. If at 50 volumes, dissolution was not observed at room temperature, mixture was heated to reflux temperature.
# [3] = acid; cited from earlier work
# [4] = Thermodynamic solubility at pH 7.4; type: physicochemical; conditions: maleate
# Experimental: General protocol for thermodynamic solubility at pH 7.4 and pH 2 are described. • A) Thermodynamic Solubility at pH 7.4
# Phosphate buffer at pH 7.4 (25 mM) was prepared as follows:
# A solution 25 mM of Na2HPO4.12H2O (for 1 L of water, weight 8.96 g) was prepared
# A solution 25 mM de KH2PO4 (for 1 L of water weight 3.4 g) was prepared.
# Disodium phosphate solution (812 mL) and potassium phosphate (182 mL) solution were mixed and pH checked to be 7.4.
# Equipment • Precision analytical balance Mettler Toledo AT20. • Analytical balance Mettler Toledo PJ300. • Liquid chromatograph Waters Alliance 2695. • Stirrer Thermomixer Control of Eppendorf a 25° C. y 1250 rpm • pHmeter with combined semi-micro electrode.
# Around 4 mg of compound in an HPLC vial (by duplicate) was dissolved in 1 mL of buffer solution. After stirring in Thermomixer Comfort system for 24 hours at 25° C., in order to achieve thermodynamic equilibrium, solution was centrifuged at 3000 rpm for 15 minutes.
# The resulting upper layer was collected with a glass pipette and transferred to the HPLC vials in order to inject them (10 μL) directly to the HPLC instrument.
# Standards were made in methanol to ensure overall compound solubility. Preparation of standard calibrators is illustrated below:
# Sol.A: 4 mg in 1 mL methanol (4000 μg/mL)
# Sol.B: 0.5 mL Sol.A to 5 mL with methanol (400 μg/mL)
# Sol.C: 1 mL Sol.B to 10 mL with methanol (40 μg/mL)
# Sol.D: 5 mL […] to 50 mL with methanol (4 μg/mL)
# Sol.E: 4 mL Sol.D to 10 mL with methanol (1.6 μg/mL)
# Calibration curve was created through 10 μL injection of standards, beginning with the more diluted standard. Blanks were also injected, for checking the absence of contamination.
# 10 μl of test substance were injected, by duplicate, and the average peak area interpolated in the calibration curve (see Tables Examples below).
# Chromatographic Conditions • Column: XBridge C18 (or similar) 2.5 μm 4.6×50 mm • Temperature: 35° C. • Mobile phase: ACN/ammonium bicarbonate 10 mM. • Gradient: 0-3.5 min: from 15% CAN to 95% CAN • 3.5-5 min: 95% ACN • 5-6 min: 95 a 15% ACN • 6-8 min: 15% ACN • Flow: 1.5 mL/min • Detection: around the maximum UV wavelength. • B) Thermodynamic Solubility at pH 2
# [5] = Pharmacokinetics after single oral administration to male Wistar rat; type: in vivo
# Experimental: The pharmacokinetics of Example 1 and 2 were tested using the following protocol:
# Male Wistar rats weighing 250 to 300 g (±20) supplied by Harlan were used. Water and food was available ad libitum throughout the study.
# Administration and Sample Collection
# Two rats (R1 and R2) were used in the pharmacokinetic oral studies.
# A single dose of tested compound was administered by oral gavage [10 mg/kg as free base (Example 0)] in 0.5% hydroxypropyl methylcellulose (1 mg/ml). From each rat, serial blood samples were collected at 15 and 30 min, 1, 2, 3, 5, 7 and 24 h.
# Blood was collected from the saphenous veins into heparinized tubes. Plasma was obtained by blood centrifugation at 4° C. and 2280×g for 10 min and kept at −80° C. until analysis.
# Tested compound concentration in plasma samples was determined by least-squares linear regression using a ten-point calibration curve. The calibration curve was prepared in blank plasma from a working solution of 1 mg/ml in DMSO.
# Samples were thawed at room temperature on the day of analysis. After plasma protein precipitation of samples and calibration standards with acetonitrile (1:4.3; v/v), the mixture was vortexed and centrifuged (4° C. and 16090×g for 10 min).
# Tested compound plasma concentrations were determined by high performance liquid chromatography-triple quadrupole mass spectrometry (HPLC-MS/MS) through the following method:
# Column: Atlantis® T3 column (2.1×100 mm, 3 μm) (Waters).
# Mobile phase: A: 0.0155% Formic water • B: 0.0155% Formic Acetonitrile
# Autosampler wash: Solvent 1:Acetonitrile • Solvent 2: 5% Acetonitrile+95% Water
# Standard pharmacokinetic parameters, such as area under the curve (AUC), peak plasma concentration (Cmax), time to peak concentration (tmax), oral bioavailability (F), total plasma clearance (Cl), volume of distribution at steady-state (Vss), mean residence time (MRT) and terminal half-life (t1/2), were determined by non-compartmental analysis of the plasma concentration-time curves (Phoenix v. 6.2.1.51, Pharsight, C A).
# [6] = animal 1, 10 mg/kg oral, maleate
# [7] = animal 2, 10 mg/kg oral, maleate
# [8] = mean of 2 rats, 10 mg/kg oral, listed as example 2, maleate, 10 mg/kg
# [9] = mean of 2 rats, 10 mg/kg oral, maleate, 10 mg/kg
compound,measurement,setting,value
"CC(=O)N1CCN(CCOCc2ccn(-c3ccc(F)c(F)c3)n2)CC1 [Example 0, 1-(4-(2-((1-(3,4-difluorophenyl)-1H-pyrazol-3-yl)methoxy)ethyl)piperazin-1-yl)ethanone]",pKa,[1],6.37
same,number of volumes needed to dissolve the solid,"[2]; CH2Cl2, room temperature",3 volumes
same,number of volumes needed to dissolve the solid,"[2]; CH3CN, room temperature",15 volumes
same,number of volumes needed to dissolve the solid,"[2]; EtOH, room temperature",4 volumes
same,number of volumes needed to dissolve the solid,"[2]; H2O, room temperature, heated to reflux at 50 volumes, no dissolution observed",> 50^[1] volumes
same,number of volumes needed to dissolve the solid,"[2]; MIBK, room temperature",17 volumes
same,number of volumes needed to dissolve the solid,"[2]; THF, room temperature",4 volumes
Br [Hydrobromic acid],pKa1,[3],Strong
CCS(=O)(=O)O [Ethanesulfonic acid],pKa1,[3],2.05
"CC(=O)N1CCN(CCOCc2ccn(-c3ccc(F)c(F)c3)n2)CC1 [Example 2, maleate]",Conc. Mean,"[4]; pH 7.4, mean of 4 injections",4468.706 µg/mL
same,Conc.,"[4]; pH 7.4, single HPLC injections of duplicate vials",4593.8 µg/mL and 4408.7 µg/mL and 4338.8 µg/mL and 4533.6 µg/mL
same,AUC,[5]; [6],2227 ng·h/mL
same,Cmax,[5]; [6],1.386 µg/mL
same,t1/2,[5]; [6],102 min
same,F,"[5]; animal 1, 10 mg/kg oral, mean AUC after i.v. administration used for calculation, maleate",50%
same,AUC,[5]; [7],1768 ng·h/mL
same,Cmax,[5]; [7],1.039 µg/mL
same,t1/2,[5]; [7],72 min
same,tmax,[5]; [7],30 min
same,F,"[5]; animal 2, 10 mg/kg oral, mean AUC after i.v. administration used for calculation, maleate",40%
same,AUC,[5]; [8],~2000 ng·h/mL
same,tmax,[5]; [8],22.8 min
same,AUC,[5]; [9],1997 ng·h/mL
same,t1/2 (terminal half-life),[5]; [9],90 min
same,tmax,[5]; [9],24 min
same,F (oral bioavailability),"[5]; mean of 2 rats, 10 mg/kg oral, mean AUC after i.v. administration used for calculation, maleate, 10 mg/kg",45%
same,Plasma concentration,"[5]; rat R1, 0.5 h, 10 mg/kg oral, maleate, 10 mg/kg",1.251 µg/mL
same,Plasma concentration,"[5]; rat R1, 1 h, 10 mg/kg oral, maleate, 10 mg/kg",0.907 µg/mL
same,Plasma concentration,"[5]; rat R1, 2 h, 10 mg/kg oral, maleate, 10 mg/kg",0.289 µg/mL
same,Plasma concentration,"[5]; rat R1, 3 h, 10 mg/kg oral, maleate, 10 mg/kg",0.157 µg/mL
same,Plasma concentration,"[5]; rat R1, 5 h, 10 mg/kg oral, maleate, 10 mg/kg",0.045 µg/mL
same,Plasma concentration,"[5]; rat R1, 7 h, 10 mg/kg oral, maleate, 10 mg/kg",0.041 µg/mL
same,Plasma concentration,"[5]; rat R2, 0.5 h, 10 mg/kg oral, maleate, 10 mg/kg",1.039 µg/mL
same,Plasma concentration,"[5]; rat R2, 1 h, 10 mg/kg oral, maleate, 10 mg/kg",0.639 µg/mL
same,Plasma concentration,"[5]; rat R2, 2 h, 10 mg/kg oral, maleate, 10 mg/kg",0.317 µg/mL
same,Plasma concentration,"[5]; rat R2, 3 h, 10 mg/kg oral, maleate, 10 mg/kg",0.095 µg/mL
same,Plasma concentration,"[5]; rat R2, 5 h, 10 mg/kg oral, maleate, 10 mg/kg",0.075 µg/mL
same,Plasma concentration,"[5]; rat R2, 7 h, 10 mg/kg oral, maleate, 10 mg/kg",0.013 µg/mL
CC(=O)N1CCN(CCOCc2ccn(-c3ccc(F)c(F)c3)n2)CC1 (as salt: hydrochloride) [Example 1],melting point,,155 to 157 °C
CC(=O)N1CCN(CCOCc2ccn(-c3ccc(F)c(F)c3)n2)CC1 (as salt: maleate) [Example 2],melting point,,160 to 162 °C
CCCCCCCCCC(=O)O [Capric acid],pKa1,[3],4.9
CCCCCC(=O)O [Caproic acid],pKa1,[3],4.88
O=S(=O)(O)c1ccccc1 [Benzensulphonic acid],pKa1,[3],0.7
CCCCCCCC(=O)O [Caprylic acid],pKa1,[3],4.89
O=[N+]([O-])O [Nitric acid],pKa1,[3],Strong
